# Assay results from patent US20240424112A1, “TETRAHYDROISOQUINOLINE COMPOUNDS THAT ARE KEAP1 BINDERS” (C4X Discovery Limited, priority 2021, published 2024).
# Columns and labels:
# BRD4 short isoform = biological target: T1, BRD4 short isoform (Homo sapiens, UniProt O60885); test: BRD4 degradation assay (Western blot, MDA-MB-468 cells), short isoform; type: cell-based; conditions: MDA-MB-468, n = 2
# T1 construct: endogenous in cells; host or cells: MDA-MB-468
# Experimental: (§1) BRD4 Degradation Assay Protocol Summary
# (§2) MDA-MB-468 cells were cultured routinely in DMEM supplemented with 10% heat inactivated FBS and 1% Penicillin-Streptomycin (Thermofisher Scientific) at 37° C. 5% CO2. Cells were seeded in 6-well plates at 4*10^5 cells per well and left to adhere overnight. Example compounds were solubilised in DMSO to make 10 mM stocks followed by serial dilutions in DMSO to 200× final concentration. These were further diluted in culture media to give 20× treatment stocks before addition to cells to a 1× final concentration. Cells were then incubated at 37° C. 5% CO2 for 24 or 48 hours after which cells were lysed in RIPA buffer supplemented with cOmplete Mini Protease Inhibitor Cocktail and PhosSTOP™ (Roche). Lysates were clarified by centrifugation at 13,000 RPM for 10 minutes and the protein concentration of the resulting supernatants determined by BCA assay (ThermoFisher Scientific) as per manufacturer's instructions. Lysates were denatured and reduced in NuPAGE LDS sample buffer and sample reducing agent before 10 μg was loaded onto NuPAGE […] Tris-Acetate Mini Protein Gels (ThermoFisher Scientific). Protein was transferred to nitrocellulose membranes using a Trans-Blot Turbo Transfer System (Bio-Rad) before blocking for 1 hour in Intercept (TBS) Blocking Buffer (Li-Cor). Membranes were then incubated overnight with BRD4 (ab128874; Abcam) and α-tubulin (T6074; Sigma-Aldrich) antibodies diluted 1:2000 and 1:16,000 respectively in Tris-buffered saline 0.05% Tween 20 (TBS-T). The following day, membranes were washed with TBS-T before addition of anti-rabbit IRDye 800 CW and anti-mouse IRDye 680LT secondary antibodies (LiCor) (diluted 1:10,000 in TBS-T) for one hour. Membranes were then washed with TBS-T before imaging using a LICOR Odyssey Infrared Imaging System with Image Studio Ver 5.2 software (LiCor). Densitometry analysis was carried out in the LiCor image studio software where BRD4 signal was normalised to α-tubulin signal. Percentage degradation of BRD4 relative to the DMSO treated negative control was calculated as: =100−(signal of interest/signal of control sample*100). BRD4 degradation by dBET1 was used as positive control for each plate. Data obtained for the percentage degradation of BRD4 upon treatment with the Example compounds 1-6 and Comparative Example compounds 1-3 at 24 hour incubation are shown in Table 2 and with 48 hour incubation are shown in Table 3.
# BRD4 long isoform = biological target: T2, BRD4 long isoform (Homo sapiens, UniProt O60885); test: BRD4 degradation assay (Western blot, MDA-MB-468 cells), long isoform; type: cell-based; conditions: MDA-MB-468, n = 2
# T2 construct: endogenous in cells; host or cells: MDA-MB-468
# Experimental: as §1, §2
# BRD4 = biological target: T3, BRD4 (Homo sapiens, UniProt O60885); test: BRD4 degradation assay (Western blot, MDA-MB-468 cells), isoform not given; type: cell-based
# T3 construct: endogenous in cells; host or cells: MDA-MB-468
# Experimental: as §1
# MDA-MB-468 cells were cultured routinely in DMEM supplemented with 10% heat inactivated FBS and 1% Penicillin-Streptomycin (Thermofisher Scientific) at 37° C. 5% CO2. Cells were seeded in 6-well plates at 4*10^5 cells per well and left to adhere overnight. Example compounds were solubilised in DMSO to make 10 mM stocks followed by serial dilutions in DMSO to 200× final concentration. These were further diluted in culture media to give 20× treatment stocks before addition to cells to a 1× final concentration. Cells were then incubated at 37° C. 5% CO2 for 24 or 48 hours after which cells were lysed in RIPA buffer supplemented with cOmplete Mini Protease Inhibitor Cocktail and PhosSTOP™ (Roche). Lysates were clarified by centrifugation at 13,000 RPM for 10 minutes and the protein concentration of the resulting supernatants determined by BCA assay (ThermoFisher Scientific) as per manufacturer's instructions. Lysates were denatured and reduced in NuPAGE LDS sample buffer and sample reducing agent before 10 μg was loaded onto NuPAGE […] Tris-Acetate Mini Protein Gels (ThermoFisher Scientific). […] Percentage degradation of BRD4 relative to the DMSO treated negative control was calculated as: =100−(signal of interest/signal of control sample*100). […]
# [1] = tested on: NRF2 mediated gene NAD(P)H:quinone acceptor oxidoreductase 1 (NQO1) mRNA in BEAS-2B cells; test: Beas2B NQO1 mRNA cell based assay; conditions: Homo sapiens, 24 h, vs vehicle (0.1% DMSO), read-out: EC50 (increase in NQO1 mRNA)
# Experimental: Beas2B NQO1 mRNA Cell Based Assay
# The up-regulation of the NRF2 mediated gene NAD(P)H:quinone acceptor oxidoreductase 1 (NQO1) was measured using the following assay method: BEAS-2B cells (ATCC CRL-9609) were plated in 96-well clear plates at 20,000 cells/well in 75 μL of cell culture media and incubated overnight (37° C., 5% CO2). On day 2, 25 μL of compound or controls were added to the cells for 24 h. On day 3, the medium was aspirated from the plate and the Cells-to-CT™ 1-Step TaqMan® Kit (Ambion A25603) was used to perform expression analysis directly from cultured cells without RNA purification according to the manufacturer's instructions.
# Briefly, cells were washed with ice cold PBS and 22.5 μL of room-temperature DNase/Lysis solution was added to the cells and incubated at room temperature for 5 minutes. To stop the reaction, 2.25 μL of stop solution was added to the cell lysate. The samples were diluted 1:5 using nuclease free water and 2.5 μL transferred into the PCR plate. Real-time PCR was performed using the C-1000 Thermal Cycler (Bio-Rad) using human beta actin as the internal control. The cDNA was amplified with a specific primer for NQO1 using the 1-step RT-PCR master mix (Ambion Cells-to-CT™ 1-Step TaqMan® Kit A25603). The primers/probes sets that were used for amplification of cDNA were obtained from TaqMan Gene Expression Assays (Applied Biosystems). The comparative CT (ΔΔCT) relative quantification method was used to calculate the relative mRNA level of the target gene NQO1 as described in the Applied Biosystems Chemistry Guide. The data are expressed as an increase in target gene mRNA compared to vehicle (0.1% DMSO) control and the EC50 values were determined by fitting the data to a four parameter logistic fit using XLfit or XE Runner within ActivityBase.
smiles,measurement,setting,value
"Cc1sc2c(c1C)C(c1ccc(Cl)cc1)=N[C@@H](CC(=O)NCC(=O)NCCn1nnc(COc3ccc(Cl)c4c3[C@@H](CN3CC5(CC5)CC3=O)N(C(=O)[C@@H]3CCCC[C@]3(C)C(=O)O)CC4)c1C)c1nnc(C)n1-2 [Example 1, (1S,2R)-2-((S)-5-Chloro-8-((1-(2-(2-(2-((S)-4-(4-chlorophenyl)-2,3,9-trimethyl-6H-thieno[3,2-f][1,2,4]triazolo[4,3-a][1,4]diazepin-6-yl)acetamido)acetamido)ethyl)-5-methyl-1H-1,2,3-triazol-4-yl)methoxy)-1-((6-oxo-5-azaspiro[2.4]heptan-5-yl)methyl)-1,2,3,4-tetrahydroisoquinoline-2-carbonyl)-1-methylcyclohexane-1-carboxylic acid]",% Mean Degradation of BRD4,"BRD4 short isoform; 24 h, 0.01 μM",69%
same,% Mean Degradation of BRD4,"BRD4 short isoform; 24 h, 0.1 μM",97%
same,% Mean Degradation of BRD4,"BRD4 short isoform; 24 h, 1 μM",96%
same,% Mean Degradation of BRD4,"BRD4 short isoform; 48 h, 0.01 μM",68%
same,% Mean Degradation of BRD4,"BRD4 short isoform; 48 h, 0.1 μM",93%
same,% Mean Degradation of BRD4,"BRD4 short isoform; 48 h, 1 μM",100%
same,% Mean Degradation of BRD4,"BRD4 long isoform; 24 h, 0.01 μM",75%
same,% Mean Degradation of BRD4,"BRD4 long isoform; 24 h, 0.1 μM",99%
same,% Mean Degradation of BRD4,"BRD4 long isoform; 24 h, 1 μM",101%
same,% Mean Degradation of BRD4,"BRD4 long isoform; 48 h, 0.01 μM",74%
same,% Mean Degradation of BRD4,"BRD4 long isoform; 48 h, 0.1 μM",97%
same,% Mean Degradation of BRD4,"BRD4 long isoform; 48 h, 1 μM",99%
same,degradation of BRD4,BRD4; at 0.01 μM,up to 75%
same,target protein (BRD4) degradation,BRD4; at ≥0.1 μM,almost complete target protein degradation
same,EC50,[1],187 nM
"Cc1sc2c(c1C)C(c1ccc(Cl)cc1)=N[C@@H](CC(=O)NCCOCCOCCNC(=O)[C@@]1(C)CCCC[C@H]1C(=O)N1CCc3c(Cl)ccc(OCc4nnn(C)c4C)c3[C@H]1CN1CC3(CC3)CC1=O)c1nnc(C)n1-2 [Comparative Example 3, (1S,2R)-2-((S)-5-Chloro-8-((1,5-dimethyl-1H-1,2,3-triazol-4-yl)methoxy)-1-((6-oxo-5-azaspiro[2.4]heptan-5-yl)methyl)-1,2,3,4-tetrahydroisoguinoline-2-carbonyl)-N-(2-(2-(2-(2-((S)-4-(4-chlorophenyl)-2,3,9-trimethyl-6H-thieno[3,2-f][1,2,4]triazolo[4,3-a][1,4]diazepin-6-yl)acetamido)ethoxy)ethoxy)ethyl)-1-methylcyclohexane-1-carboxamide, reference compound]",% Mean Degradation of BRD4,"BRD4 short isoform; 24 h, 0.1 μM",5%
same,% Mean Degradation of BRD4,"BRD4 short isoform; 24 h, 1 μM",31%
same,% Mean Degradation of BRD4,"BRD4 short isoform; 24 h, 5 μM",18%
same,% Mean Degradation of BRD4,"BRD4 short isoform; 48 h, 0.1 μM",23%
same,% Mean Degradation of BRD4,"BRD4 short isoform; 48 h, 1 μM",32%
same,% Mean Degradation of BRD4,"BRD4 short isoform; 48 h, 5 μM",−4%
same,% Mean Degradation of BRD4,"BRD4 long isoform; 24 h, 0.1 μM",34%
same,% Mean Degradation of BRD4,"BRD4 long isoform; 24 h, 1 μM",45%
same,% Mean Degradation of BRD4,"BRD4 long isoform; 24 h, 5 μM",49%
same,% Mean Degradation of BRD4,"BRD4 long isoform; 48 h, 0.1 μM",13%
same,% Mean Degradation of BRD4,"BRD4 long isoform; 48 h, 1 μM",30%
same,% Mean Degradation of BRD4,"BRD4 long isoform; 48 h, 5 μM",20%
same,EC50,[1],68 nM
"Cc1sc2c(c1C)C(c1ccc(Cl)cc1)=N[C@@H](CC(=O)NCCOCCC(=O)NCCOCc1c(COc3ccc(Cl)c4c3[C@@H](CN3CC5(CC5)CC3=O)N(C(=O)[C@@H]3CCCC[C@]3(C)C(=O)O)CC4)nnn1C)c1nnc(C)n1-2 [Example 5, (1S,2R)-2-((S)-5-Chloro-8-((5-(14-((S)-4-(4-chlorophenyl)-2,3,9-trimethyl-6H-thieno[3,2-f][1,2,4]triazolo[4,3-a][1,4]diazepin-6-yl)-6,13-dioxo-2,9-dioxa-5,12-diazatetradecyl)-1-methyl-1H-1,2,3-triazol-4-yl)methoxy)-1-((6-oxo-5-azaspiro[2.4]heptan-5-yl)methyl)-1,2,3,4-tetrahydroisoquinoline-2-carbonyl)-1-methylcyclohexane-1-carboxylic acid]",% Mean Degradation of BRD4,"BRD4 short isoform; 24 h, 0.1 μM",−5%
same,% Mean Degradation of BRD4,"BRD4 short isoform; 24 h, 1 μM",76%
same,% Mean Degradation of BRD4,"BRD4 short isoform; 24 h, 5 μM",78%
same,% Mean Degradation of BRD4,"BRD4 short isoform; 48 h, 0.1 μM",40%
same,% Mean Degradation of BRD4,"BRD4 short isoform; 48 h, 1 μM",78%
same,% Mean Degradation of BRD4,"BRD4 short isoform; 48 h, 5 μM",80%
same,% Mean Degradation of BRD4,"BRD4 long isoform; 24 h, 0.1 μM",1%
same,% Mean Degradation of BRD4,"BRD4 long isoform; 24 h, 1 μM",65%
same,% Mean Degradation of BRD4,"BRD4 long isoform; 24 h, 5 μM",69%
same,% Mean Degradation of BRD4,"BRD4 long isoform; 48 h, 0.1 μM",34%
same,% Mean Degradation of BRD4,"BRD4 long isoform; 48 h, 1 μM",78%
same,% Mean Degradation of BRD4,"BRD4 long isoform; 48 h, 5 μM",82%
same,EC50,[1],337 nM
"Cc1sc2c(c1C)C(c1ccc(Cl)cc1)=N[C@@H](CC(=O)NCC(=O)NCCNC(=O)[C@@]1(C)CCCC[C@H]1C(=O)N1CCc3c(Cl)ccc(OCc4nnn(C)c4C)c3[C@H]1CN1CC3(CC3)CC1=O)c1nnc(C)n1-2 [Comparative Example 1, (1S,2R)-2-((S)-5-Chloro-8-((1,5-dimethyl-1H-1,2,3-triazol-4-yl)methoxy)-1-((6-oxo-5-azaspiro[2.4]heptan-5-yl)methyl)-1,2,3,4-tetrahydroisoquinoline-2-carbonyl)-N-(2-(2-(2-((S)-4-(4-chlorophenyl)-2,3,9-trimethyl-6H-thieno[3,2-f][1,2,4]triazolo[4,3-a][1,4]diazepin-6-yl)acetamido)acetamido)ethyl)-1-methylcyclohexane-1-carboxamide, reference compound]",% Mean Degradation of BRD4,"BRD4 short isoform; 24 h, 0.1 μM",18%
same,% Mean Degradation of BRD4,"BRD4 short isoform; 24 h, 1 μM",42%
same,% Mean Degradation of BRD4,"BRD4 short isoform; 24 h, 5 μM",43%
same,% Mean Degradation of BRD4,"BRD4 short isoform; 48 h, 0.1 μM",−11%
same,% Mean Degradation of BRD4,"BRD4 short isoform; 48 h, 1 μM",24%
same,% Mean Degradation of BRD4,"BRD4 short isoform; 48 h, 5 μM",28%
same,% Mean Degradation of BRD4,"BRD4 long isoform; 24 h, 0.1 μM",11%
same,% Mean Degradation of BRD4,"BRD4 long isoform; 24 h, 1 μM",18%
same,% Mean Degradation of BRD4,"BRD4 long isoform; 24 h, 5 μM",5%
same,% Mean Degradation of BRD4,"BRD4 long isoform; 48 h, 0.1 μM",−39%
same,% Mean Degradation of BRD4,"BRD4 long isoform; 48 h, 1 μM",−27%
same,% Mean Degradation of BRD4,"BRD4 long isoform; 48 h, 5 μM",−47%
same,EC50,[1],212 nM
